Patent publication US8546377B2 (AbbVie Inc., priority 2009, dated 2013)

Experiments:
[1] = target: T1, human serotonin 5-HT2c receptor (Homo sapiens, UniProt P28335); test: Human 5-HT2C receptor radioligand binding assay (agonist site, [125I](±)DOI); details: membranes of transfected CHO cells, 0.2 nM [125I](±)DOI, 15 minutes at 37° C.
T1 construct: expressed in transfected cells; host or cells: CHO cells (membrane homogenate)
T1 sequence (P28335 33-458): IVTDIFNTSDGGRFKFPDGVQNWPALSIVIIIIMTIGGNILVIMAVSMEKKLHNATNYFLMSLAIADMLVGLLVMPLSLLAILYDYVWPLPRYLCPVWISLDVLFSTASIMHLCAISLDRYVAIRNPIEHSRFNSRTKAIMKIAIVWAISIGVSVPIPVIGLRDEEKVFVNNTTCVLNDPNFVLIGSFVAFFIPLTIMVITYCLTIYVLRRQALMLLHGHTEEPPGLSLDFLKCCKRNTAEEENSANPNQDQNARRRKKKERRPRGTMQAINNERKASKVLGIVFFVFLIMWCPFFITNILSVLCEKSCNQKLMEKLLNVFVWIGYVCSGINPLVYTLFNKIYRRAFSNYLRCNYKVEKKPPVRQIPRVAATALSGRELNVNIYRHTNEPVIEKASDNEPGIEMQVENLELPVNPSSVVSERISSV
In short: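 Affinity for the agonist site measured by radioligand binding in transfected CHO cells expressing the human receptor, using [125I](±)DOI.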

[2] = target: T2, 5HT2C receptors (Homo sapiens, UniProt P28335); test: Human 5-HT2C functional assay in CHO-K1 cells (calcium flux, FLIPR); type: cell-based; design: expressed in transfected cells; host or cells: CHO-K1 cells; details: CHO-K1 cells over-expressing 5HT2C, calcium flux; read-out: EC50 (μM), 5-HT2c Agonist Activity
T2 sequence (P28335 33-458): T1 sequence (P28335 33-458)
In short: (§1)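 EC50 came from a 4-parameter logistic fit, with Emax expressed relative to serotonin, of intracellular Ca2+ rises read on FLIPR at 480/530 nm, 25° C, over 3 min. Compounds ran from 10 μM in six 1:10 steps (0.2% DMSO) on serum-starved CHO-K1 transfectants pre-loaded 60 min with Ca4 dye and probenecid.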

[3] = target: T3, 5HT2B receptors (Homo sapiens, UniProt P41595); test: Human 5-HT2B functional assay in CHO-K1 cells (calcium flux, FLIPR); type: cell-based; details: CHO-K1 cells over-expressing 5HT2B, calcium flux; read-out: EC50 (μM), 5-HT2B Agonist Activity
T3 construct: expressed in transfected cells; host or cells: CHO-K1 cells
In short: as §1

[4] = target: T2, 5HT2C receptors; test: Human 5-HT2C functional assay in 1321N1 cells (intracellular calcium, FLIPR); type: cell-based; design: expressed in transfected cells; host or cells: 1321N1 cells; details: 1321N1 cells stably transfected, maximum calcium response; read-out: EC50 (μM), 5-HT2c Agonist Activity
In short: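 Intracellular calcium in 1321N1 cells stably transfected with human 5-HT2C, serum-starved overnight, Fluo4 AM-loaded with 1% probenecid. Compounds at 10^−10 to 10^−5 M final, alone or with 10^−9 M serotonin; peak FLIPR response. EC50 from four-parameter logistic fit; Emax as % of serotonin effect.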

T3 sequence (P41595 whole entry): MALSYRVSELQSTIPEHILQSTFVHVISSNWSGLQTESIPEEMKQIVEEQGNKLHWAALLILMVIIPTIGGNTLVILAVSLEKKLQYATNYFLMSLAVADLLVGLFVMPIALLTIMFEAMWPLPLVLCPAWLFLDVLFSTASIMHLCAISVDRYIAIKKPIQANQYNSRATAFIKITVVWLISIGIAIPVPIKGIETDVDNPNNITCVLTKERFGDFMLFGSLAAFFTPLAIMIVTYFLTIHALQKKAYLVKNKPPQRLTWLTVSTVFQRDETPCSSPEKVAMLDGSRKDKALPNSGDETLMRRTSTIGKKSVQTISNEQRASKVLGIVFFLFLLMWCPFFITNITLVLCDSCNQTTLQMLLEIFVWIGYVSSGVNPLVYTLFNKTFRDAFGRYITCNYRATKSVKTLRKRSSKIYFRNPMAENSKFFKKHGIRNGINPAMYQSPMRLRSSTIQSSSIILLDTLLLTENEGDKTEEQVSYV

Ki [1]: 27 µM
EC50 [2]: > 10 µM
EC50 [3]: > 10 µM
EC50 [4]: > 10 µM
SMILES: O=C1NCC2CNCCN2c2ccc(NS(=O)(=O)c3ccccc3)cc21 (stereo not shown) [Example 48, N-(7-oxo-1,2,3,4,4a,5,6,7-octahydropyrazino[1,2-a][1,4]benzodiazepin-9-yl)benzenesulfonamide]
